Laboratory results reported in US4101537A, “Octapeptides and methods for their production” (Parke, Davis & Company, priority 1977, dated 1978).
Where “and” joins values, the source holds several entries; their conditions need not be identical. Equal values may be shown once.

System: LRF (luteinizing hormone releasing factor) induced luteinizing hormone (LH) release
Assay: LRF antagonist activity in vitro in rat anterior pituitary cell cultures
Assay type: cell-based
Details: LRF alone 3.5×10^-10 Molar (LRF Control)
Description: Octapeptides of this invention were screened for LRF antagonist activity in vitro using rat anterior pituitary cell cultures as described by Vale et. al. [Endocrinology, 91, 562 (1972)]. The inhibition of LRF (luteinizing hormone releasing factor) induced luteinizing hormone (LH) release into the culture medium is the endpoint in this in vitro bioassay.

LRF Control: luteinizing hormone releasing factor, the stimulus whose LH release the octapeptides inhibit; also called luteinizing hormone releasing hormone (QHWSYGLRPG; Gonadoliberin-1; UniProt P01148 24-33, looked up)
LH Value: 63.90 ng/mL and 64.13 ng/mL and 40.01 ng/mL
